Measured values as given in patent US10206394B2, “Herbicidal compounds” (Syngenta Participations AG, priority 2014, dated 2019).
Like-named read-outs stand apart in the source and are kept apart here.

Experiments:
Assay in all cases: Glasshouse assay for herbicidal activity (pre- and post-emergence), percentage phytotoxicity
Format in all cases: in vivo
[1] = test system: Echinochloa crus-galli (ECHCG); conditions: Echinochloa crus-galli
Summary of the method: (§1)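 Damage was rated visually as percent phytotoxicity, 100% meaning total kill, 20 days after pre-emergence application (made one day post-sowing) or 15 days after post-emergence application (made about 12 days post-sowing). Plants were grown under 16 h light, 65% humidity, warm species 24/18° C, cool 20/16° C.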

Lolium perenne (LOLPE) = conditions: Lolium perenne
Summary of the method: as §1

Avena fatua (AVEFA) = conditions: Avena fatua
Summary of the method: as §1

[2] = test system: Alopecurus myosuroides (ALOMY); conditions: Alopecurus myosuroides
Summary of the method: as §1

[3] = post-emergence, 360 h, Rate 250 g/ha, post-emergence, assessed visually 15 DAA, 100%=total damage, 0%=no damage, read-out: Post-emergence herbicidal activity (percentage phytotoxicity) ECHCG POST
[4] = pre-emergence, 480 h, Rate 250 g/ha, pre-emergence, assessed visually 20 DAA, 100%=total damage, 0%=no damage, read-out: Pre-emergence herbicidal activity (percentage phytotoxicity) ECHCG PRE
[5] = post-emergence, 360 h, Rate 250 g/ha, post-emergence, assessed visually 15 DAA, 100%=total damage, 0%=no damage, read-out: Post-emergence herbicidal activity (percentage phytotoxicity) LOLPE POST
[6] = pre-emergence, 480 h, Rate 250 g/ha, pre-emergence, assessed visually 20 DAA, 100%=total damage, 0%=no damage, read-out: Pre-emergence herbicidal activity (percentage phytotoxicity) LOLPE PRE
[7] = post-emergence, 360 h, Rate 250 g/ha, post-emergence, assessed visually 15 DAA, 100%=total damage, 0%=no damage, read-out: Post-emergence herbicidal activity (percentage phytotoxicity) AVEFA POST
[8] = pre-emergence, 480 h, Rate 250 g/ha, pre-emergence, assessed visually 20 DAA, 100%=total damage, 0%=no damage, read-out: Pre-emergence herbicidal activity (percentage phytotoxicity) AVEFA PRE
[9] = post-emergence, 360 h, Rate 250 g/ha, post-emergence, assessed visually 15 DAA, 100%=total damage, 0%=no damage, read-out: Post-emergence herbicidal activity (percentage phytotoxicity) ALOMY POST
[10] = pre-emergence, 480 h, Rate 250 g/ha, pre-emergence, assessed visually 20 DAA, 100%=total damage, 0%=no damage, read-out: Pre-emergence herbicidal activity (percentage phytotoxicity) ALOMY PRE

SMILES | pest or weed control at 250 g/ha [1, 3] [%] | pest or weed control at 250 g/ha [1, 4] [%] | pest or weed control at 250 g/ha (Lolium perenne (LOLPE); [5]) [%] | pest or weed control at 250 g/ha (Lolium perenne (LOLPE); [6]) [%] | pest or weed control at 250 g/ha (Avena fatua (AVEFA); [7]) [%] | pest or weed control at 250 g/ha (Avena fatua (AVEFA); [8]) [%] | pest or weed control at 250 g/ha [2, 9] [%] | pest or weed control at 250 g/ha [2, 10] [%] | also measured
Cc1cnc(CNC(=O)CC2CC(=O)C(c3c(C)cc(-c4ncc(Cl)cc4F)cc3C)C2=O)s1 (centres unmarked) [Compound A123] | 100 | 90 | 90 | 80 | 80 | 70 | 80 | 60 | 
COCCNC(=O)CC1CC(=O)C(c2c(C)cc(-c3ncc(F)cn3)cc2C)C1=O (centres unmarked) [Compound A87] | 100 | 90 | 80 | 80 | 100 | 90 | 100 | 80 | 
C=CCNC(=O)CC1CC(=O)C(c2c(C)cc(C#CC)cc2C)C1=O (centres unmarked) [Compound B157] |  |  |  |  |  |  |  |  | pest or weed control at 250 g/ha ([1]; post-emergence, 360 h, 250 g/ha, post-emergence, 15 DAA, visual assessment (100%=total damage, 0%=no damage), read-out: Post-emergence herbicidal activity (percentage phytotoxicity) ECHCG POST): 100%; pest or weed control at 250 g/ha ([1]; pre-emergence, 480 h, 250 g/ha, pre-emergence, 20 DAA, visual assessment (100%=total damage, 0%=no damage), read-out: Pre-emergence herbicidal activity (percentage phytotoxicity) ECHCG PRE): 100%; pest or weed control at 250 g/ha (Lolium perenne (LOLPE); post-emergence, 360 h, 250 g/ha, post-emergence, 15 DAA, visual assessment (100%=total damage, 0%=no damage), read-out: Post-emergence herbicidal activity (percentage phytotoxicity) LOLPE POST): 100%; pest or weed control at 250 g/ha (Lolium perenne (LOLPE); pre-emergence, 480 h, 250 g/ha, pre-emergence, 20 DAA, visual assessment (100%=total damage, 0%=no damage), read-out: Pre-emergence herbicidal activity (percentage phytotoxicity) LOLPE PRE): 100%; pest or weed control at 250 g/ha (Avena fatua (AVEFA); post-emergence, 360 h, 250 g/ha, post-emergence, 15 DAA, visual assessment (100%=total damage, 0%=no damage), read-out: Post-emergence herbicidal activity (percentage phytotoxicity) AVEFA POST): 100%; pest or weed control at 250 g/ha (Avena fatua (AVEFA); pre-emergence, 480 h, 250 g/ha, pre-emergence, 20 DAA, visual assessment (100%=total damage, 0%=no damage), read-out: Pre-emergence herbicidal activity (percentage phytotoxicity) AVEFA PRE): 90%; pest or weed control at 250 g/ha ([2]; post-emergence, 360 h, 250 g/ha, post-emergence, 15 DAA, visual assessment (100%=total damage, 0%=no damage), read-out: Post-emergence herbicidal activity (percentage phytotoxicity) ALOMY POST): 100%; pest or weed control at 250 g/ha ([2]; pre-emergence, 480 h, 250 g/ha, pre-emergence, 20 DAA, visual assessment (100%=total damage, 0%=no damage), read-out: Pre-emergence herbicidal activity (percentage phytotoxicity) ALOMY PRE): 100%
C#CCN(C)C(=O)CC1CC(=O)C(c2c(C)cc(-n3cc(Cl)cn3)cc2CC)C1=O (centres unmarked) [Compound B240] |  |  |  |  |  |  |  |  | pest or weed control at 250 g/ha ([1]; post-emergence, 360 h, POST-emergence, rate 250 g/ha, visual score 15 DAA (100%=total damage, 0%=no damage), read-out: Post-emergence herbicidal activity (percentage phytotoxicity) ECHCG POST): 100%; pest or weed control at 250 g/ha ([1]; pre-emergence, 480 h, PRE-emergence, rate 250 g/ha, visual score 20 DAA (100%=total damage, 0%=no damage), read-out: Pre-emergence herbicidal activity (percentage phytotoxicity) ECHCG PRE): 90%; pest or weed control at 250 g/ha (Lolium perenne (LOLPE); post-emergence, 360 h, POST-emergence, rate 250 g/ha, visual score 15 DAA (100%=total damage, 0%=no damage), read-out: Post-emergence herbicidal activity (percentage phytotoxicity) LOLPE POST): 100%; pest or weed control at 250 g/ha (Lolium perenne (LOLPE); pre-emergence, 480 h, PRE-emergence, rate 250 g/ha, visual score 20 DAA (100%=total damage, 0%=no damage), read-out: Pre-emergence herbicidal activity (percentage phytotoxicity) LOLPE PRE): 90%; pest or weed control at 250 g/ha (Avena fatua (AVEFA); post-emergence, 360 h, POST-emergence, rate 250 g/ha, visual score 15 DAA (100%=total damage, 0%=no damage), read-out: Post-emergence herbicidal activity (percentage phytotoxicity) AVEFA POST): 100%; pest or weed control at 250 g/ha (Avena fatua (AVEFA); pre-emergence, 480 h, PRE-emergence, rate 250 g/ha, visual score 20 DAA (100%=total damage, 0%=no damage), read-out: Pre-emergence herbicidal activity (percentage phytotoxicity) AVEFA PRE): 90%; pest or weed control at 250 g/ha ([2]; post-emergence, 360 h, POST-emergence, rate 250 g/ha, visual score 15 DAA (100%=total damage, 0%=no damage), read-out: Post-emergence herbicidal activity (percentage phytotoxicity) ALOMY POST): 100%; pest or weed control at 250 g/ha ([2]; pre-emergence, 480 h, PRE-emergence, rate 250 g/ha, visual score 20 DAA (100%=total damage, 0%=no damage), read-out: Pre-emergence herbicidal activity (percentage phytotoxicity) ALOMY PRE): 100%
